According to the NIST ThermoML archive (doi:10.1021/acs.jced.9b00246):

Assay: an = ratio of the nth substance listed
Conditions: 101.3 kPa, Liquid; for viscosity: Concentric cylinders viscometry; for mass density: Vibrating tube method

CCN.Cl [ethylammonium chloride] + NC(N)=O
Conditions	mass density, 313.2 K [kg/m3]	mass density, 323.2 K [kg/m3]	mass density, 333.2 K [kg/m3]	mass density, 343.2 K [kg/m3]	mass density, 353.2 K [kg/m3]	viscosity, 313.2 K [mPa·s]	viscosity, 323.2 K [mPa·s]	viscosity, 333.2 K [mPa·s]	viscosity, 343.2 K [mPa·s]	viscosity, 353.2 K [mPa·s]
a2 = 0.5	1103.2	1098.1	1093.11	1088.05	1083.06	97.8	69.6	50.8	40.9	34.8
a2 = 1	1141.67	1135.99	1130.4	1124.89	1119.43	197.7	110.1	68.3	47.6	34.8
a2 = 1.94	1178.75	1172.79	1166.88	1160.96	1155.08	105.5	67.5	49.2	37.5	28.7
